Assay results taken from patent publication US8106055B2, “Substituted amide compounds” (Gruenenthal GmbH, priority 2007, dated 2012).

Tests used:
[1] = biological target: T1, serotonin (5-HT) reuptake (Rattus norvegicus, UniProt P31652); assay: Inhibition of serotonin (5HT) reuptake in synaptosomes from rat brain; format: biochemical; details: test concentration of 10 μM
T1 construct: synaptosomes are freshly isolated from areas of the rat brain; from tissue; host or cells: rat brain synaptosomes (P2 fraction)
In short: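 Compounds screened at 10 μM and reported as percent inhibition of serotonin uptake. Uptake measured in a freshly prepared P2 synaptosomal fraction from rat brain.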

[2] = biological target: T2, human bradykinin 1 receptor (B1R) (Homo sapiens, UniProt P46663); assay: Functional investigation on the human bradykinin 1 receptor (B1R), Ca2+ FLIPR assay in CHO K1 hB1R cells; format: cell-based; details: B1R antagonism human; test substance 10 μM; Ca2+ FLIPR, CHO K1 hB1R cells
T2 construct: expressed in transfected cells; host or cells: CHO K1 cells
T2 sequence (P46663 1-353): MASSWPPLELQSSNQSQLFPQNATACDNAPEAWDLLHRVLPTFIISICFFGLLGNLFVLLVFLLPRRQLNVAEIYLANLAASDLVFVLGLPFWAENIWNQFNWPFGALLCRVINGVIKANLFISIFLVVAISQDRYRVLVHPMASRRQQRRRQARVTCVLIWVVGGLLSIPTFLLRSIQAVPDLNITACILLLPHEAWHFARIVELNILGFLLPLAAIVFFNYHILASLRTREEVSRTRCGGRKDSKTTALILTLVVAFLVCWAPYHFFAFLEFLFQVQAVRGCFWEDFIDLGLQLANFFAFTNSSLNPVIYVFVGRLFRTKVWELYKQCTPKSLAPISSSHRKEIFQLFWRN
In short: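 Fluo-4 Ca2+ readout, peak fluorescence. Stable CHO K1 transfectants; compound pre-incubated 10-20 min, then EC80 agonist—Lys-Des-Arg9-BK for hB1R, Des-Arg9-BK for rB1R. % inhibition vs maximal inhibition; IC50 from multiple concentrations, duplicate/triplicate, ≥2 independent runs.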

T1 sequence (P31652 whole entry): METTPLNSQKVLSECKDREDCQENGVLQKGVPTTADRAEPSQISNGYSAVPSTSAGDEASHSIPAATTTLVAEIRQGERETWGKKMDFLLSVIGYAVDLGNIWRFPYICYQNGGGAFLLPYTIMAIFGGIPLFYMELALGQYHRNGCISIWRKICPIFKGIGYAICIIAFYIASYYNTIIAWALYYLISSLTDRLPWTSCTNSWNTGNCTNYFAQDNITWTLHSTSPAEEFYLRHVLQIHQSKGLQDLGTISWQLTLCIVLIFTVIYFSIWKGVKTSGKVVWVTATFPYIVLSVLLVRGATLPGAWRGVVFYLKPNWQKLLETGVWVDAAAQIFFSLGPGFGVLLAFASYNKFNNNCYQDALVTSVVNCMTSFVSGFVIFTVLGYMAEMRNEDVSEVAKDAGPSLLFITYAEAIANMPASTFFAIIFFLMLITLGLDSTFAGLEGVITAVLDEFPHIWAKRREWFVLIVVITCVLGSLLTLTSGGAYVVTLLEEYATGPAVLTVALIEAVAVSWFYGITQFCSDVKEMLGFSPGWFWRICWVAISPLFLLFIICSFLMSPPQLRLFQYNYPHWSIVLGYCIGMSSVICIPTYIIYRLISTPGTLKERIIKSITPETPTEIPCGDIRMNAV

Structure (SMILES) | 5-HT (inhibition of reuptake of serotonin, % inhibition) [1] [%] | B1R Ant. h [10 μM] % Inhibition [2] [%]
CN(C)C(c1cccc(F)c1)C1CCC(CCNC(=O)COCCN(Cc2ccccc2)S(=O)(=O)c2ccccc2)CC1 (stereo not drawn) [Example 278] | 98 | 16
CN(C)C(c1cccc(F)c1)C1CCC(CNC(=O)COCCC2CCN(S(=O)(=O)c3ccccc3)CC2)CC1 (stereo not drawn) [Example 333] | 84 | 17
COc1ccc(S(=O)(=O)N2Cc3ccccc3CC2COCC(=O)NCC2CCC(C(c3ccc(F)cc3)N(C)C)CC2)cc1 (stereo not drawn) [Example 288] | 94 | 62
Cc1ccc(S(=O)(=O)N(C)CCOCC(=O)NCCC2CCC(C(c3ccc(Cl)cc3)N(C)C)CC2)cc1 (stereo not drawn) [Example 306] | 91 | 38
COc1ccc(S(=O)(=O)N2CCCC2COCC(=O)NCC2CCC(C(c3cccc(F)c3)N(C)C)CC2)cc1 (stereo not drawn) [Example 313] | 93 | 34
Cc1ccc(S(=O)(=O)N2CCC(OCC(=O)NCCC3CCC(C(c4ccc(Cl)cc4)N(C)C)CC3)C2)cc1 (stereo not drawn) [Example 305] | 88 | 30
COc1ccc(S(=O)(=O)N2CCCCC2COCC(=O)NC2CCC(C(c3cccc(F)c3)N(C)C)CC2)cc1OC (stereo not drawn) [Example 352] | 91 | −18
COc1ccc(S(=O)(=O)N(C)CCOCC(=O)NCCC2CCC(C(c3ccc(Cl)cc3)N(C)C)CC2)cc1OC (stereo not drawn) [Example 339] | 78 | −9
COc1ccc(S(=O)(=O)N(C)CCOCC(=O)NCCC2CCC(C(c3cccc(F)c3)N(C)C)CC2)cc1 (stereo not drawn) [Example 292] | 83 | 20
COc1cc(C)c(S(=O)(=O)N2CCC(OCC(=O)NC3CCC(C(c4cccc(F)c4)N(C)C)CC3)CC2)c(C)c1C (stereo not drawn) [Example 286] | 92 | 37
CN(C)C(c1ccc(F)cc1)C1CCC(CNC(=O)COCCN(Cc2ccccc2)S(=O)(=O)c2ccccc2)CC1 (stereo not drawn) [Example 342] | 94 | 28
COc1ccc(S(=O)(=O)N(C)CCOCC(=O)NCC2CCC(C(c3cccc(F)c3)N(C)C)CC2)cc1 (stereo not drawn) [Example 340] | 81 | 39
